Like-named read-outs stand apart in the source and are kept apart here.
How the values were obtained:
[1] = biological target: T1, CK2α/CK2β interaction (CK2α^1−335 / fluorescently labeled CK2β^1−193) (Homo sapiens, UniProt P68400); conditions: for Inhibition of CK2α/CK2β2 interaction K i: MST, global fit with K D = […] nM, mean±SEM of 2–4 experiments, prec.=precipitation, n.s.=not significant
T1 sequence (P68400 1-335): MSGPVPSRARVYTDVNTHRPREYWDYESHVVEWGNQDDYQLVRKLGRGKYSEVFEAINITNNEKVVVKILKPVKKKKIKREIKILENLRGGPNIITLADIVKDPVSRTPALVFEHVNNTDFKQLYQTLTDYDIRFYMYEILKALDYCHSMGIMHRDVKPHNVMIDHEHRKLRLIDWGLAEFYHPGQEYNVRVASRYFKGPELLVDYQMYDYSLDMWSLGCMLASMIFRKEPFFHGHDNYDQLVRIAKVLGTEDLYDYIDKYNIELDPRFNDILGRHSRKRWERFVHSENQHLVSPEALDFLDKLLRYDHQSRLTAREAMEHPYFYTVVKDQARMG
Protocol: The inhibition of the interaction between the CK2α and the CK2β subunit was determined in a microscale thermophoresis (MST) assay.
To quantify the protein‐protein interaction in the presence of potential inhibitors, the investigated compounds were first dissolved in DMSO (2‐10 mM) and then 50‐fold diluted in ITC buffer (25 mM Tris‐HCl, 500 mM NaCl, pH 8.5) containing 0.1 % (v/v) Tween 20 to concentrations of either 40, 100 or 200 μM in 2 % (v/v) DMSO, i. e. twice the final concentrations: 20, 50 and 100 μM, respectively, in 1 % (v/v) DMSO, 0.05 % (v/v) Tween 20. […] MST traces were recorded at room temperature using a Nanotemper Monolith™ NT.115 Series Instrument with Monolith™ NT.115 standard treated capillaries and normalized to initial fluorescence (MO.Affinity Analysis, Nanotemper). […] Next, the statistical significance of the shift from K D to K D’ was determined for each compound by means of an unpaired Student's t test (Table S4). […] Data was analyzed and statistically evaluated with the program GraphPad Prism v.5.04 for Windows (GraphPad Software, San Diego, CA, USA).
a Shown are mean  SEM values of KD and KD’ for n separate experiments.
significant (n. s.), P > 0.05; *, P ≤ 0.05; **, P ≤ 0.01; ***, P ≤ 0.001; ****, P ≤ 0.0001. prec.

[2] = biological target: T2, CK2α subunit (Homo sapiens, UniProt P68400); experiment: Capillary electrophoresis (CE) assay, enzyme inhibition of the CK2α subunit; format: biochemical; conditions: for inhibition at 10 µM: read-out: Inhibition (%) of CK2α
T2 construct: made in house; host or cells: E. coli BL21(DE3)
T2 sequence (P68400 whole entry): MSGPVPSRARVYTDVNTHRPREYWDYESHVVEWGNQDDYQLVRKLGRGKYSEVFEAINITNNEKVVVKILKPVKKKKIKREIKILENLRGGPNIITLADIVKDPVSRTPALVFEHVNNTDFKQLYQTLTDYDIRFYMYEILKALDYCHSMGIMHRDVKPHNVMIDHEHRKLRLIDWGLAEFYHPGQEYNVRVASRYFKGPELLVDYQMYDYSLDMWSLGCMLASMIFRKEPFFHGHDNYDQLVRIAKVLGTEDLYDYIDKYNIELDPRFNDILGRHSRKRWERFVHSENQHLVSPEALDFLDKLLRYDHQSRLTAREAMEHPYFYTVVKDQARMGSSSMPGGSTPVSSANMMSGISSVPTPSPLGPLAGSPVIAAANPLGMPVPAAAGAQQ
Text: (§1) In this assay, the decapeptide […], a known class I substrate suitable for assaying the kinase activity of both the CK2 holoenzyme and the catalytically active CK2 subunits,50, 58 was reacted with ATP in the presence of enzyme, which transfers a phosphate group to Ser7 of the decapeptide. Due to the additional negative charge of the phosphate group, the decapeptide and the phosphorylated decapeptide can be separated by CE. […] The data on the inhibition of the kinase activities of CK2α2β2, CK2α subunit and mutated CK2α’ ^C336S subunit are summarized in Table 1.
(§2) Enzymatic activities with or without inhibitors were determined for the holoenzyme (CK2α2β2), the CK2α subunit, and the mutated CK2α′ ^C336S subunit by a capillary electrophoresis assay as described before.59 For this purpose, CK2α as well as (CK2α2β2) holoenzyme were purified after recombinant expression in E. coli BL21(DE3) and purified according the protocol of Grankowski et al.62 The mutated CK2α′ ^C336S subunit was purified by Ni‐NTA affinity chromatography using an N‐terminally attached His6 tag. Successful purification was controlled by SDS‐PAGE. Enzymatic activity was determined in the presence of 60 μM ATP and 114 μM of the substrate peptide […]. For both CK2α subunits an assay buffer containing 100 mM NaCl instead of 60 mM NaCl as for the holoenzyme, and 20 mM MgCl2 instead of 10 mM MgCl2 was applied. For the holoenzyme, 1 μg was added, whereas for CK2α and the mutated CK2α′ ^C336S subunit 0.25 μg was added each. For each compound inhibition was determined three times independently at an initial concentration of 10 μM and the mean value and the standard deviation (SD) were calculated.

[3] = biological target: T3, mutated CK2α’ ^C336S subunit (Homo sapiens, UniProt P19784, C336S); experiment: Capillary electrophoresis (CE) assay, enzyme inhibition of the mutated CK2α′ C336S subunit; format: biochemical; conditions: for inhibition at 10 µM: read-out: Inhibition (%) of CK2α’ ^C336S
T3 construct: His6 (N); made in house
T3 sequence (P19784 1-350 C336S): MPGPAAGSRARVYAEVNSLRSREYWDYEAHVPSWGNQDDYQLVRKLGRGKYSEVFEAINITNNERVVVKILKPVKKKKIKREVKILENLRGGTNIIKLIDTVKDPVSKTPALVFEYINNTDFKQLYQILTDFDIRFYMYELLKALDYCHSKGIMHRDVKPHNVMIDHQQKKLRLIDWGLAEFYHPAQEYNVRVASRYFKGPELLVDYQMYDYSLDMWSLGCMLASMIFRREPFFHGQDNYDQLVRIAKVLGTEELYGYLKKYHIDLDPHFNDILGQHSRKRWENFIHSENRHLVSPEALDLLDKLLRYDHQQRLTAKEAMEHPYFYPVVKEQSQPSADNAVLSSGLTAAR
Text: as §1, §2

[4] = biological target: T4, holoenzyme CK2α2β2 (Homo sapiens, UniProt P68400); experiment: Capillary electrophoresis (CE) assay, enzyme inhibition of the holoenzyme; format: biochemical; conditions: for inhibition at 10 µM: read-out: Inhibition (%) of CK2α2β2
T4 construct: made in house; host or cells: E. coli BL21(DE3)
T4 sequence (P68400 whole entry): as the sequence (P68400 whole entry) above
Protocol: In this assay, the decapeptide […], a known class I substrate suitable for assaying the kinase activity of both the CK2 holoenzyme and the catalytically active CK2 subunits,50, 58 was reacted with ATP in the presence of enzyme, which transfers a phosphate group to Ser7 of the decapeptide. Due to the additional negative charge of the phosphate group, the decapeptide and the phosphorylated decapeptide can be separated by CE.
Enzymatic activities with or without inhibitors were determined for the holoenzyme (CK2α2β2), the CK2α subunit, and the mutated CK2α′ ^C336S subunit by a capillary electrophoresis assay as described before.59 For this purpose, CK2α as well as (CK2α2β2) holoenzyme were purified after recombinant expression in E. coli BL21(DE3) and purified according the protocol of Grankowski et al.62 The mutated CK2α′ ^C336S subunit was purified by Ni‐NTA affinity chromatography using an N‐terminally attached His6 tag. […] For both CK2α subunits an assay buffer containing 100 mM NaCl instead of 60 mM NaCl as for the holoenzyme, and 20 mM MgCl2 instead of 10 mM MgCl2 was applied. For the holoenzyme, 1 μg was added, whereas for CK2α and the mutated CK2α′ ^C336S subunit 0.25 μg was added each. For each compound inhibition was determined three times independently at an initial concentration of 10 μM and the mean value and the standard deviation (SD) were calculated.

[5] = c=10 μM, CE assay, mean±SD of three experiments, n.s.=not significant

Compound: COc1cc([C@H]2c3c([nH]c4ccccc34)[C@@H](C(=O)N3C(=O)OC[C@@H]3Cc3ccccc3)[C@H]3C(=O)N(C)C(=O)[C@@H]23)cc(OC)c1OC [(+)‐10 a]
- Ki [1]: 2.8 ± 0.9 µM
- inhibition at 10 µM [2, 5]: 41 ± 11%
- inhibition at 10 µM [3, 5]: 53 ± 15%
- inhibition at 10 µM [4, 5]: 26 ± 7%

Compound: COc1cc([C@@H]2c3c([nH]c4ccccc34)[C@@H](C(=O)N3C(=O)OC[C@@H]3Cc3ccccc3)[C@@H]3C(=O)OC(=O)[C@H]23)cc(OC)c1OC [(+)‐3 d, (3aS,4S,10R,10aR)‐4‐{[(S)‐4‐Benzyl‐2‐oxo‐1,3‐oxazolidin‐3‐yl]carbonyl}‐10‐(3,4,5‐trimethoxyphenyl)‐4,5,10,10a‐tetrahydrofuro[3,4‐b]carbazole‐1,3(3aH)‐dione]
- inhibition at 10 µM [2]: 43 ± 13%
- Inhibition (%) of CK2α’ ^C336S [3, 5]: n.s.
- inhibition at 10 µM [4]: 92 ± 7%

Compound: COc1cc([C@H]2c3c([nH]c4ccccc34)[C@H](C(=O)N3C(=O)OC[C@H]3Cc3ccccc3)[C@H]3C(=O)NC(=O)[C@@H]23)cc(OC)c1OC [(+)‐9 d]
- Inhibition of CK2α/CK2β2 interaction K i [1]: n.s.
- inhibition at 10 µM [4, 5]: < 50%

Compound: COc1cc([C@@H]2c3c([nH]c4ccccc34)[C@@H](C(=O)N3C(=O)OC[C@@H]3Cc3ccccc3)[C@@H]3C(=O)NC(=O)[C@H]23)cc(OC)c1OC [(−)‐9 d]
- Inhibition of CK2α/CK2β2 interaction K i [1]: n.s.
- inhibition at 10 µM [4, 5]: < 50%

Compound: COc1cc([C@H]2c3c([nH]c4ccccc34)[C@@H](C(=O)N3C(=O)OC[C@H]3Cc3ccccc3)[C@H]3C(=O)N(C)C(=O)[C@@H]23)cc(OC)c1OC [(+)‐10 b, (3aS,4S,10S,10aS)‐4‐{[(R)‐4‐Benzyl‐2‐oxo‐1,3‐oxazolidin‐3‐yl]carbonyl}‐2‐methyl‐10‐(3,4,5‐trimethoxyphenyl)‐4,5,10,10a‐tetrahydropyrrolo[3,4‐b]carbazole‐1,3(2H,3aH)‐dione]
- Ki [1]: 7.2 ± 1.5 µM
- Inhibition (%) of CK2α [2, 5]: n.s.
- Inhibition (%) of CK2α’ ^C336S [3, 5]: n.s.
- inhibition at 10 µM [4, 5]: 31 ± 9%

Compound: COc1cc([C@@H]2c3c([nH]c4ccccc34)[C@@H](C(=O)N3C(=O)OC[C@H]3Cc3ccccc3)[C@@H]3C(=O)NC(=O)[C@H]23)cc(OC)c1OC [(‐)‐9 c]
- Inhibition of CK2α/CK2β2 interaction K i [1]: prec.
- inhibition at 10 µM [4, 5]: < 50%

Compound: COc1cc([C@H]2c3c([nH]c4ccccc34)[C@H](C(=O)N[C@H](CO)Cc3ccccc3)[C@H]3C(=O)NC(=O)[C@@H]23)cc(OC)c1OC [(+)‐14 c]
- Inhibition of CK2α/CK2β2 interaction K i [1]: n.s.
- inhibition at 10 µM [4, 5]: < 50%

Compound: COc1cc([C@H]2c3c([nH]c4ccccc34)[C@@H](C(=O)N3C(=O)OC[C@H]3Cc3ccccc3)[C@H]3C(=O)NC(=O)[C@@H]23)cc(OC)c1OC [(+)‐9 b, (3aS,4S,10S,10aS)‐4‐{[(R)‐4‐Benzyl‐2‐oxo‐1,3‐oxazolidin‐3‐yl]carbonyl}‐10‐(3,4,5‐trimethoxyphenyl)‐4,5,10,10a‐tetrahydropyrrolo[3,4‐b]carbazole‐1,3(2H,3aH)‐dione]
- Ki [1]: 4.9 ± 0.8 µM
- Inhibition (%) of CK2α [2, 5]: n.s.
- Inhibition (%) of CK2α’ ^C336S [3, 5]: n.s.
- inhibition at 10 µM [4, 5]: 12 ± 7%

Compound: COc1cc([C@H]2c3c([nH]c4ccccc34)[C@H](C(=O)N3C(=O)OC[C@@H]3Cc3ccccc3)[C@H]3C(=O)OC(=O)[C@@H]23)cc(OC)c1OC [(+)‐3 c, (3aR,4R,10S,10aS)‐4‐{[(S)‐4‐Benzyl‐2‐oxo‐1,3‐oxazolidin‐3‐yl]carbonyl}‐10‐(3,4,5‐trimethoxyphenyl)‐4,5,10,10a‐tetrahydrofuro[3,4‐b]carbazole‐1,3(3aH)‐dione]
- inhibition at 10 µM [2]: 65 ± 4%
- inhibition at 10 µM [3]: 52 ± 38%
- inhibition at 10 µM [4]: 66 ± 16%

Compound: COc1cc([C@@H]2c3c([nH]c4ccccc34)[C@H](C(=O)N3C(=O)OC[C@H]3Cc3ccccc3)[C@@H]3C(=O)N(C)C(=O)[C@H]23)cc(OC)c1OC [(−)‐10 a, (3aR,4R,10R,10aR)‐4‐{[(R)‐4‐Benzyl‐2‐oxo‐1,3‐oxazolidin‐3‐yl]carbonyl}‐2‐methyl‐10‐(3,4,5‐trimethoxyphenyl)‐4,5,10,10a‐tetrahydropyrrolo[3,4‐b]carbazole‐1,3(2H,3aH)‐dione]
- Ki [1]: 8.5 ± 2.9 µM
- Inhibition (%) of CK2α [2, 5]: n.s.
- inhibition at 10 µM [3, 5]: 30 ± 23%
- inhibition at 10 µM [4, 5]: 29 ± 14%

Compound: COc1cc([C@@H]2c3c([nH]c4ccccc34)[C@H](C(=O)N3C(=O)OC[C@@H]3Cc3ccccc3)[C@@H]3C(=O)N(C)C(=O)[C@H]23)cc(OC)c1OC [(−)‐10 b]
- Ki [1]: 3.7 ± 0.7 µM
- Inhibition (%) of CK2α [2, 5]: n.s.
- Inhibition (%) of CK2α’ ^C336S [3, 5]: n.s.
- inhibition at 10 µM [4, 5]: 15 ± 11%

Compound: COc1cc([C@H]2c3c([nH]c4ccccc34)[C@@H](C(=O)N3C(=O)OC[C@@H]3Cc3ccccc3)[C@H]3C(=O)NC(=O)[C@@H]23)cc(OC)c1OC [(+)‐9 a]
- Inhibition of CK2α/CK2β2 interaction K i [1]: n.s.
- Inhibition (%) of CK2α [2, 5]: n.s.
- Inhibition (%) of CK2α’ ^C336S [3, 5]: n.s.
- inhibition at 10 µM [4, 5]: 20 ± 4%

Compound: COc1cc([C@@H]2c3c([nH]c4ccccc34)[C@@H](C(=O)O)[C@@H]3C(=O)NC(=O)[C@H]23)cc(OC)c1OC (racemic) [(±)‐12]
- Ki [1]: 1.8 ± 0.8 µM
- Inhibition (%) of CK2α [2, 5]: n.s.
- Inhibition (%) of CK2α’ ^C336S [3, 5]: n.s.
- Inhibition (%) of CK2α2β2 [4, 5]: n.s.

Compound: COc1cc([C@@H]2c3c([nH]c4ccccc34)[C@H](C(=O)N3C(=O)OC[C@H]3Cc3ccccc3)[C@@H]3C(=O)NC(=O)[C@H]23)cc(OC)c1OC [(−)‐9 a]
- Ki [1]: 3.6 ± 0.6 µM
- Inhibition (%) of CK2α [2, 5]: n.s.
- Inhibition (%) of CK2α’ ^C336S [3, 5]: n.s.
- Inhibition (%) of CK2α2β2 [4, 5]: n.s.

Compound: COc1cc([C@@H]2c3c([nH]c4ccccc34)[C@@H](C(=O)N[C@H](CO)Cc3ccccc3)[C@@H]3C(=O)NC(=O)[C@H]23)cc(OC)c1OC [(−)‐14 d]
- Inhibition of CK2α/CK2β2 interaction K i [1]: n.s.
- inhibition at 10 µM [4, 5]: < 50%

Compound: COc1cc([C@H]2c3c([nH]c4ccccc34)[C@H](C(=O)N[C@@H](CO)Cc3ccccc3)[C@H]3C(=O)NC(=O)[C@@H]23)cc(OC)c1OC [(+)‐14 d]
- Inhibition of CK2α/CK2β2 interaction K i [1]: n.s.
- inhibition at 10 µM [4, 5]: < 50%

Compound: COc1cc([C@@H]2c3c([nH]c4ccccc34)[C@H](C(=O)N3C(=O)OC[C@H]3Cc3ccccc3)[C@@H]3C(=O)OC(=O)[C@H]23)cc(OC)c1OC [(−)‐3 a]
- inhibition at 10 µM [2]: 73 ± 4%
- inhibition at 10 µM [3]: 93 ± 2%
- inhibition at 10 µM [4]: 89 ± 3%

Compound: COc1cc([C@H]2c3c([nH]c4ccccc34)[C@H](C(=O)N3C(=O)OC[C@@H]3Cc3ccccc3)[C@H]3C(=O)NC(=O)[C@@H]23)cc(OC)c1OC [(+)‐9 c]
- Inhibition of CK2α/CK2β2 interaction K i [1]: prec.
- inhibition at 10 µM [4, 5]: < 50%
